Values after ≈ are worked out from the molar mass of the structure shown. Values belong to the molecule of their own block, whether it stands above or below them.
Assays:
Escherichia coli [1] = assay: microbe, parasite or virus in culture; conditions: JW5503-1, 20 h
Description: Antibacterial activity against tolC deficient Escherichia coli JW5503-1 after 20 hrs by broth microdilution method

[2] = target: T1, Bifunctional coenzyme A synthase (Homo sapiens) (UniProt Q13057)
T1 sequence (whole entry): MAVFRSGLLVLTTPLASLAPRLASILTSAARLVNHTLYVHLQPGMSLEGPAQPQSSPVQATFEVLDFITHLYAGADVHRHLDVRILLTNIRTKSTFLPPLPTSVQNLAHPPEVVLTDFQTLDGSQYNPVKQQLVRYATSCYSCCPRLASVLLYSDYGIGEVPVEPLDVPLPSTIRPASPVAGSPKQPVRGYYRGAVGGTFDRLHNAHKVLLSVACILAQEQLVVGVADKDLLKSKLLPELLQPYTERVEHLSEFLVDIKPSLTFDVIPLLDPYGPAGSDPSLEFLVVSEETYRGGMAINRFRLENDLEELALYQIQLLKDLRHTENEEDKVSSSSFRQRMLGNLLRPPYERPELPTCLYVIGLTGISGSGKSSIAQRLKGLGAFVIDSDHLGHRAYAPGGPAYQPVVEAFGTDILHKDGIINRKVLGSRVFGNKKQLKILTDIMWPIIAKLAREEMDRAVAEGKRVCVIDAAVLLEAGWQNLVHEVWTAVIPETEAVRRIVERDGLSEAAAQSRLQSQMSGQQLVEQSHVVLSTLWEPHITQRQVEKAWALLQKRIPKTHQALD
Description: Inhibition of human coaSY expressed in tolC deficient Escherichia coli JWK0002 assessed as bacterial growth inhibition after 20 hrs by broth microdilution method

physchem [3] = conditions: buffer, pH 7.4
Description: Lipophilicity, log D of the compound at pH 7.4

Pseudomonas aeruginosa [4] = assay: microbe, parasite or virus in culture; conditions: K1119, 20 h
Description: Antibacterial activity against mexAB deficient Pseudomonas aeruginosa K1119 after 20 hrs by broth microdilution method

Escherichia coli [5] = assay: Ratio of IC50 for PPAT in Escherichia coli BW25113 assessed as reduction in level of CoA-SH metabolite to IC50 for PPAT in tolC deficient Escherichia coli JW5503-1 assessed as reduction in level of CoA-SH metabolite
Escherichia coli [6] = assay: microbe, parasite or virus in culture; conditions: BW25113, 20 h
Description: Antibacterial activity against Escherichia coli BW25113 after 20 hrs by broth microdilution method

in vitro [7] = conditions: human, Caco-2
Description: Efflux ratio of apparent permeability across basolateral to apical over apical to basolateral side in human Caco2 cells

Pseudomonas aeruginosa [8] = assay: microbe, parasite or virus in culture; conditions: ATCC 35151, 20 h
Description: Antibacterial activity against Pseudomonas aeruginosa ATCC 35151 after 20 hrs by broth microdilution method

[9] = Inhibition of PPAT in tolC deficient Escherichia coli JW5503-1 assessed as reduction in level of CoA-SH metabolite by mass spectrometric method
[10] = Inhibition of PPAT in Escherichia coli BW25113 assessed as reduction in level of CoA-SH metabolite by mass spectrometric method
in vitro [11] = conditions: human, Caco-2; remark: listed apart in the source
Escherichia coli [12] = assay: microbe, parasite or virus in culture; conditions: RFM795, 20 h
Description: Antibacterial activity Escherichia coli RFM795 harboring frame deletion of 23 amino acids in lptD gene after 20 hrs by broth microdilution method

physchem [13] = conditions: PBS
Description: Solubility of the compound in PBS

in vitro [14] = conditions: human, not told
Description: Efflux ratio in human microsomes

Pseudomonas aeruginosa [15] = assay: microbe, parasite or virus in culture; conditions: PAO1, 20 h
Description: Antibacterial activity against Pseudomonas aeruginosa PAO1 after 20 hrs by broth microdilution method

Escherichia coli [16] = assay: microbe, parasite or virus in culture; conditions: JW0451-2, 20 h
Description: Antibacterial activity against acrB deficient Escherichia coli JW0451-2 after 20 hrs by broth microdilution method

Structure (SMILES): COC(=O)N1CCC(Oc2cccc([C@@H](CC#N)Nc3nc4nc(C)ccc4[nH]3)c2)CC1
MIC (Escherichia coli [1]): 0.25 µg/mL (≈ 0.575 µM)
MIC [2]: > 128 µg/mL
logD (physchem [3]): 3
MIC (Pseudomonas aeruginosa [4]): 128 µg/mL (≈ 295 µM)
Ratio IC50 (Escherichia coli [5]): 500
MIC (Escherichia coli [6]): > 128 µg/mL
efflux ratio (in vitro [7]): 48
MIC (Pseudomonas aeruginosa [8]): 128 µg/mL (≈ 295 µM)
IC50 [9]: 24 nM
IC50 [10]: 11900 nM
Papp A→B (in vitro [11]): 1 ×10⁻⁶ cm/s
MIC (Escherichia coli [12]): 8 µg/mL (≈ 18.4 µM)
solubility (physchem [13]): 264 µg/mL (≈ 608 µM)
efflux ratio (in vitro [14]): 0.44
MIC (Pseudomonas aeruginosa [15]): > 128 µg/mL
MIC (Escherichia coli [16]): 32 µg/mL (≈ 73.6 µM)

Structure (SMILES): Cc1cc(N2CCN(C)CC2)c2[nH]c(N[C@H](CC#N)c3cccc(Cl)c3)nc2n1
MIC (Escherichia coli [1]): 2 µg/mL (≈ 4.88 µM)
MIC [2]: 128 µg/mL (≈ 312 µM)
MIC (Pseudomonas aeruginosa [4]): > 128 µg/mL
MIC (Escherichia coli [6]): 64 µg/mL (≈ 156 µM)
MIC (Pseudomonas aeruginosa [8]): 128 µg/mL (≈ 312 µM)
MIC (Escherichia coli [12]): 8 µg/mL (≈ 19.5 µM)
MIC (Pseudomonas aeruginosa [15]): > 128 µg/mL
MIC (Escherichia coli [16]): 8 µg/mL (≈ 19.5 µM)

Structure (SMILES): COC(=O)N1CCC(Oc2cccc([C@@H](CC#N)Nc3nc4nc(C)cc(N5CCN(C)CC5)c4[nH]3)c2)CC1
MIC (Escherichia coli [1]): 4 µg/mL (≈ 7.51 µM)
MIC [2]: > 128 µg/mL
MIC (Pseudomonas aeruginosa [4]): > 128 µg/mL
MIC (Escherichia coli [6]): > 128 µg/mL
MIC (Pseudomonas aeruginosa [8]): > 128 µg/mL
MIC (Escherichia coli [12]): 64 µg/mL (≈ 120 µM)
efflux ratio (in vitro [14]): 0.56
MIC (Pseudomonas aeruginosa [15]): > 128 µg/mL
MIC (Escherichia coli [16]): 64 µg/mL (≈ 120 µM)

Structure (SMILES): COC(=O)N1CCC(Cc2cccc([C@@H](CC#N)Nc3nc4nc(C)ccc4[nH]3)c2)CC1
MIC (Escherichia coli [1]): ≤ 0.125 µg/mL
MIC [2]: 128 µg/mL (≈ 296 µM)
logD (physchem [3]): 2.8
MIC (Pseudomonas aeruginosa [4]): 32 µg/mL (≈ 74 µM)
MIC (Escherichia coli [6]): 128 µg/mL (≈ 296 µM)
efflux ratio (in vitro [7]): 18
Papp A→B (in vitro [11]): 2.3 ×10⁻⁶ cm/s
MIC (Escherichia coli [12]): 2 µg/mL (≈ 4.62 µM)
solubility (physchem [13]): 158 µg/mL (≈ 365 µM)
efflux ratio (in vitro [14]): 0.77
MIC (Pseudomonas aeruginosa [15]): > 128 µg/mL
MIC (Escherichia coli [16]): 16 µg/mL (≈ 37 µM)

MIC (Escherichia coli [1]): 4 µg/mL (≈ 12.8 µM)
Ratio IC50 (Escherichia coli [5]): 13
MIC (Escherichia coli [6]): > 128 µg/mL
IC50 [9]: 370 nM
IC50 [10]: 4760 nM
Structure (SMILES): Cc1ccc2[nH]c(N[C@H](CC#N)c3cccc(Cl)c3)nc2n1

MIC (Escherichia coli [1]): 4 µg/mL (≈ 9.73 µM)
logD (physchem [3]): 2.4
MIC (Escherichia coli [6]): > 128 µg/mL
IC50 [9]: 97 nM
IC50 [10]: 41000 nM
solubility (physchem [13]): > 729 µg/mL
Structure (SMILES): Cc1cc(N2CCN(C)CC2)n2nc(N[C@H](CC#N)c3cccc(Cl)c3)nc2n1

Reference: ChEMBL document CHEMBL4043292, “Discovery and Optimization of Phosphopantetheine Adenylyltransferase Inhibitors with Gram-Negative Antibacterial Activity” (J Med Chem, 2018)
